In publication PMC12396409, “Screening and hit evaluation of a microbial metabolite library against the pathogenic Plasmodium falciparum and Toxoplasma gondii parasites” (International Journal for Parasitology: Drugs and Drug …, 2025):
Where two headings read alike, the source gives them in different places. Where a SMILES comes first, the peptide text is derived from it. [ ]: non-standard residue; d: D form. d(aIle) = CC[C@H](C)[C@@H](N)C(=O)O; NMeL = CN[C@@H](CC(C)C)C(=O)O; Hiv = CC(C)[C@H](O)C(=O)O

Legend:
[1] = tested on: P. falciparum 3D7 parasites; experiment: P. falciparum growth inhibition assay, 2-cycle (120 h treatment), delayed-death screen and dose-response; type: cell-based, Plasmodium falciparum; details: for 3) Fold change (72 h/120 h): growth at 72 h / growth at 120 h
[2] = tested on: P. falciparum 3D7 parasites; experiment: P. falciparum growth inhibition assay, 1-cycle (72 h treatment), SYBR DNA staining (library screen at 2 μg/mL and dose-response); type: cell-based, Plasmodium falciparum
[3] = tested on: T. gondii RH strain (RH-Tub-eYFP) tachyzoites; experiment: microbe, parasite or virus in culture; type: cell-based, Toxoplasma gondii; details: 72 h, 72 h; for percent parasite growth at 2 µg/mL: Toxoplasma gondii
[4] = P. falciparum, 120 h, screen at 2 μg/mL, replicate 1
[5] = P. falciparum, 120 h, screen at 2 μg/mL, replicate 2
[6] = P. falciparum, 72 h, screen at 2 μg/mL, replicate 1
[7] = P. falciparum, 72 h, screen at 2 μg/mL, replicate 2
[8] = T. gondii, screen at 2 μg/mL, replicate 1
[9] = T. gondii, screen at 2 μg/mL, replicate 2
[10] = T. gondii, screen at 2 μg/mL, replicate 1, read-out: Tg_72h_%Growth_Rep1
[11] = T. gondii, screen at 2 μg/mL, replicate 2, read-out: Tg_72h_%Growth_Rep2
[12] = library screen at 2 μg/mL, 120 h, % growth, replicate 1
[13] = library screen at 2 μg/mL, 120 h, % growth, replicate 2
[14] = library screen at 2 μg/mL, 72 h, % growth, replicate 1
[15] = library screen at 2 μg/mL, 72 h, % growth, replicate 2
[16] = library screen at 2 μg/mL, % growth, replicate 1
[17] = library screen at 2 μg/mL, % growth, replicate 2
[18] = P. falciparum, 120 h, parasite screen 2 μg/mL, % growth, replicate 1
[19] = P. falciparum, 120 h, parasite screen 2 μg/mL, % growth, replicate 2
[20] = P. falciparum, 72 h, parasite screen 2 μg/mL, % growth, replicate 1
[21] = P. falciparum, 72 h, parasite screen 2 μg/mL, % growth, replicate 2
[22] = T. gondii, parasite screen 2 μg/mL, % growth, replicate 1
[23] = T. gondii, parasite screen 2 μg/mL, % growth, replicate 2
[24] = Plasmodium falciparum, 3D7, P. falciparum, 120 h, parasite screen 2 μg/mL, % growth, replicate 1, read-out: Pf_120h_%Growth_Rep1
[25] = Plasmodium falciparum, 3D7, P. falciparum, 120 h, parasite screen 2 μg/mL, % growth, replicate 2, read-out: Pf_120h_%Growth_Rep2
[26] = Plasmodium falciparum, 3D7, P. falciparum, 72 h, parasite screen 2 μg/mL, % growth, replicate 1, read-out: Pf_72h_%Growth_Rep1
[27] = Plasmodium falciparum, 3D7, P. falciparum, 72 h, parasite screen 2 μg/mL, % growth, replicate 2, read-out: Pf_72h_%Growth_Rep2
[28] = T. gondii, parasite screen 2 μg/mL, % growth, replicate 1, read-out: Tg_72h_%Growth_Rep1
[29] = T. gondii, parasite screen 2 μg/mL, % growth, replicate 2, read-out: Tg_72h_%Growth_Rep2

C[C@@H]1[C@H](O)[C@@H](C)/C=C/C=C/C=C/C=C/C=C/C=C/C=C/[C@H](O[C@@H]2O[C@H](C)[C@@H](O)[C@H](N)[C@@H]2O)C[C@@H]2O[C@](O)(C[C@@H](O)C[C@@H](O)[C@H](O)CC[C@@H](O)C[C@@H](O)CC(=O)O[C@H]1C)C[C@H](O)[C@H]2C(=O)O [Amphotericin B]
activity at 2 µg/mL ([1]; Plasmodium falciparum, 3D7, 120 h, library screen at 2 μg/mL, 120 h, % growth, replicate 1, read-out: Pf_120h_%Growth_Rep1): 77% | activity at 2 µg/mL ([1]; Plasmodium falciparum, 3D7, 120 h, library screen at 2 μg/mL, 120 h, % growth, replicate 2, read-out: Pf_120h_%Growth_Rep2): 69.3% | activity at 2 µg/mL ([2]; Plasmodium falciparum, 3D7, 72 h, library screen at 2 μg/mL, 72 h, % growth, replicate 1, read-out: Pf_72h_%Growth_Rep1): 84.3% | activity at 2 µg/mL ([2]; Plasmodium falciparum, 3D7, 72 h, library screen at 2 μg/mL, 72 h, % growth, replicate 2, read-out: Pf_72h_%Growth_Rep2): 90.2% | percent parasite growth at 2 µg/mL ([3]; library screen at 2 μg/mL, % growth, replicate 1, read-out: Tg_72h_%Growth_Rep1): 101% | percent parasite growth at 2 µg/mL ([3]; library screen at 2 μg/mL, % growth, replicate 2, read-out: Tg_72h_%Growth_Rep2): 86.5%

O=C(O)/C=C/c1ccc(O)cc1 [Coumaric acid, p-]
Pf_120h_%Growth_Rep1 [1, 4]: 65.95% | Pf_120h_%Growth_Rep2 [1, 5]: 100.33% | Pf_72h_%Growth_Rep1 [2, 6]: 85.52% | Pf_72h_%Growth_Rep2 [2, 7]: 91.08% | Tg_72h_%Growth_Rep1 [3, 8]: 117.43% | Tg_72h_%Growth_Rep2 [3, 9]: 104.71%

CC[C@H]1OC(=O)[C@H](C)C(=O)[C@H](C)[C@@H](O[C@@H]2O[C@H](C)C[C@H](N(C)C)[C@H]2O)[C@](C)(OC)C[C@@H](C)C(=O)[C@H](C)[C@H]2N(CCCCn3cnc(-c4cccnc4)c3)C(=O)O[C@]12C [Telithromycin]
activity at 2 µg/mL ([1]; Plasmodium falciparum, 3D7, P. falciparum, 120 h, screen at 2 μg/mL, replicate 1, read-out: Pf_120h_%Growth_Rep1): 50.8% | activity at 2 µg/mL ([1]; Plasmodium falciparum, 3D7, P. falciparum, 120 h, screen at 2 μg/mL, replicate 2, read-out: Pf_120h_%Growth_Rep2): 9.42% | activity at 2 µg/mL ([2]; Plasmodium falciparum, 3D7, P. falciparum, 72 h, screen at 2 μg/mL, replicate 1, read-out: Pf_72h_%Growth_Rep1): 42.3% | activity at 2 µg/mL ([2]; Plasmodium falciparum, 3D7, P. falciparum, 72 h, screen at 2 μg/mL, replicate 2, read-out: Pf_72h_%Growth_Rep2): 40.6% | percent parasite growth at 2 µg/mL [3, 10]: 56.9% | percent parasite growth at 2 µg/mL [3, 11]: 55.2%

COc1c(C)c2c(c(O)c1C/C=C(\C)CCC(=O)O)C(=O)OC2 [BIA-M1207]
Pf_120h_%Growth_Rep1 ([1]; P. falciparum 3D7, 120 h, parasite screen at 2 μg/mL, % growth, replicate 1): 16.21% | Pf_120h_%Growth_Rep2 ([1]; P. falciparum 3D7, 120 h, parasite screen at 2 μg/mL, % growth, replicate 2): 22.24% | Pf_72h_%Growth_Rep1 ([2]; P. falciparum 3D7, 72 h, parasite screen at 2 μg/mL, % growth, replicate 1): 27.32% | Pf_72h_%Growth_Rep2 ([2]; P. falciparum 3D7, 72 h, parasite screen at 2 μg/mL, % growth, replicate 2): 1.32% | Tg_72h_%Growth_Rep1 ([3]; T. gondii, parasite screen at 2 μg/mL, % growth, replicate 1): 1.75% | Tg_72h_%Growth_Rep2 ([3]; T. gondii, parasite screen at 2 μg/mL, % growth, replicate 2): 2.10%

CC1=C[C@H](C)C[C@H](C)[C@H](Cc2cnco2)OC(=O)/C(C)=C\[C@H](C)C[C@H](C)[C@H](Cc2cnco2)OC1=O [Conglobatin]
Pf_120h_%Growth_Rep1 [1, 4]: 82.43% | Pf_120h_%Growth_Rep2 [1, 5]: 72.72% | Mean ([2]; P. falciparum, 72 h, 2 μg/mL, mean of both replicates, growth (% of control)): 52.30 | Pf_72h_%Growth_Rep1 [2, 6]: 86.29% | Pf_72h_%Growth_Rep2 [2, 7]: 18.30% | Tg_72h_%Growth_Rep1 [3, 8]: 127.73% | Tg_72h_%Growth_Rep2 [3, 9]: 88.01%

CCCN1C[C@H](C)[C@@H](O)[C@](C)(O)[C@@H](CC)OC(=O)[C@H](C)[C@@H](O[C@H]2C[C@@](C)(OC)[C@@H](O)[C@H](C)O2)[C@H](C)[C@@H](O[C@@H]2O[C@H](C)C[C@H](N(C)C)[C@H]2O)[C@](C)(O)C[C@H]1C [Gamithromycin, reference compound]
2) Growth (%) at 120 h ([1]; P. falciparum, 2 μg/mL, 120 h): 15.46% | 3) Fold change (72 h/120 h) ([1]; P. falciparum, 2 μg/mL): 3.8 | Pf_120h_%Growth_Rep1 [1, 12]: 12.20% | Pf_120h_%Growth_Rep2 [1, 13]: 18.72% | 1) Growth (%) at 72 h ([2]; P. falciparum, 2 μg/mL, 72 h): 58.53% | Pf_72h_%Growth_Rep1 [2, 14]: 42.98% | Pf_72h_%Growth_Rep2 [2, 15]: 74.08% | Tg_72h_%Growth_Rep1 [3, 16]: 33.80% | Tg_72h_%Growth_Rep2 [3, 17]: 38.81%

CC1=C(O)C(=O)[C@@H]2O[C@@H]2C1=O [Terreic acid]
activity at 2 µg/mL ([1]; Plasmodium falciparum, 3D7, 120 h, P. falciparum, 120 h, screen at 2 μg/mL, replicate 1, read-out: Pf_120h_%Growth_Rep1): 100% | activity at 2 µg/mL ([1]; Plasmodium falciparum, 3D7, 120 h, P. falciparum, 120 h, screen at 2 μg/mL, replicate 2, read-out: Pf_120h_%Growth_Rep2): 98% | activity at 2 µg/mL ([2]; Plasmodium falciparum, 3D7, 72 h, P. falciparum, 72 h, screen at 2 μg/mL, replicate 1, read-out: Pf_72h_%Growth_Rep1): 89.2% | activity at 2 µg/mL ([2]; Plasmodium falciparum, 3D7, 72 h, P. falciparum, 72 h, screen at 2 μg/mL, replicate 2, read-out: Pf_72h_%Growth_Rep2): 121% | percent parasite growth at 2 µg/mL [3, 10]: 132% | percent parasite growth at 2 µg/mL [3, 11]: 83%

CC[C@H](C)[C@H]1NC(=O)[C@H](C(C)C)OC(=O)[C@H](CC(C)C)N(C)C(=O)[C@H](C(C)C)NC(=O)[C@H](C(C)C)OC(=O)[C@@H](CC(C)C)NC1=O [Sporidesmolide II] (cyclo([Hiv]V[NMeL][Hiv][d(aIle)][dL]))
Pf_120h_%Growth_Rep1 [1, 18]: 86.28% | Pf_120h_%Growth_Rep2 [1, 19]: 130.73% | Pf_72h_%Growth_Rep1 [2, 20]: 88.48% | Pf_72h_%Growth_Rep2 [2, 21]: 54.25% | Tg_72h_%Growth_Rep1 [3, 22]: 96.52% | Tg_72h_%Growth_Rep2 [3, 23]: 86.44%

CO[C@H]1[C@H](O)[C@@H](O)[C@H](n2c3c(Cl)cccc3c3c4c(c5c6cccc(Cl)c6[nH]c5c32)C(=O)NC4=O)O[C@@H]1CO [Rebeccamycin]
3) Fold change (72 h/120 h) ([1]; P. falciparum, 2 μg/mL): 1.2 | activity at 2 µg/mL ([1]; Plasmodium falciparum, 3D7; P. falciparum, 2 μg/mL, 120 h; read-out: 2) Growth (%) at 120 h): 18.4% | activity at 2 µg/mL [1, 24]: 22.3% | activity at 2 µg/mL [1, 25]: 14.5% | activity at 2 µg/mL ([2]; Plasmodium falciparum, 3D7; P. falciparum, 2 μg/mL, 72 h; read-out: 1) Growth (%) at 72 h): 21.6% | activity at 2 µg/mL [2, 26]: 22.6% | activity at 2 µg/mL [2, 27]: 20.5% | percent parasite growth at 2 µg/mL [3, 28]: 35.4% | percent parasite growth at 2 µg/mL [3, 29]: 70.9%

COC(=O)c1cc(O)cc(OC)c1C(=O)c1c(O)cc(C)cc1O [Sulochrin]
activity at 2 µg/mL [1, 24]: 93.2% | activity at 2 µg/mL [1, 25]: 96.4% | activity at 2 µg/mL [2, 26]: 88.9% | activity at 2 µg/mL [2, 27]: 90.8% | percent parasite growth at 2 µg/mL [3, 28]: 153% | percent parasite growth at 2 µg/mL [3, 29]: 100%

C=C(NC(=O)C(=C)NC(=O)c1ccc2c(n1)-c1coc(n1)C(=C)NC(=O)C(=C)NC(=O)c1nc(oc1C)C(=C)NC(=O)[C@H](C(C)(C)O)NC(=O)C(=C)NC(=O)c1nc(oc1C)/C(=C/C)NC(=O)[C@H]([C@@H](C)O)NC(=O)c1csc-2n1)C(N)=O [Berninamycin A]
Pf_120h_%Growth_Rep1 [1, 12]: 140.98% | Pf_120h_%Growth_Rep2 [1, 13]: 104.87% | Pf_72h_%Growth_Rep1 [2, 14]: 102.47% | Pf_72h_%Growth_Rep2 [2, 15]: 88.00% | Tg_72h_%Growth_Rep1 [3, 16]: 80.20% | Tg_72h_%Growth_Rep2 [3, 17]: 95.18%

CO[C@H]1/C=C\C=C(/C)C(=O)Nc2cc(O)cc(c2O)[C@H](OC)[C@@H](C)C[C@H](OC)[C@H](O)[C@@H](C)/C=C(\C)[C@@H]1OC(N)=O [TAN 420C]
Pf_120h_%Growth_Rep1 [1, 18]: 31.69% | Pf_120h_%Growth_Rep2 [1, 19]: 5.24% | Pf_72h_%Growth_Rep1 [2, 20]: 3.02% | Pf_72h_%Growth_Rep2 [2, 21]: -2.54% | Tg_72h_%Growth_Rep1 [3, 22]: 82.44% | Tg_72h_%Growth_Rep2 [3, 23]: 97.92%
